Experimental data taken from paper PMC10208151 (mAbs, 2023).

Target: BMSmAb (Bristol Myers Squibb mAb, a type of IgG4)
Experiment: STD NMR titration
Type: binding

Kd: 67.8 mM
SMILES: OC[C@H]1O[C@@](CO)(O[C@H]2O[C@H](CO)[C@@H](O)[C@H](O)[C@H]2O)[C@@H](O)[C@@H]1O [sucrose]
